# Legend:
# Type in all cases: in vivo
# [1] = system: retina of the constitutively active Akt-Mer Tg mouse; test: Retina cup observation by optical microscope after persistent activation of Akt (Example 3); settings: 4-OHT i.p. 100 μg/day×3 days, 4th to 6th day after birth; observed 7th day; vs mouse without 4-OHT
# Protocol: In this example, an influence of the persistent activation of Akt on the retina in the constitutively active Akt-Mer Tg mouse produced in Example 1 was investigated. Here, the influence on the retina was confirmed by observing the retina of the constitutively active Akt-Mer Tg mouse in which Akt had been persistently activated using an optical microscope.
# To the constitutively active Akt-Mer Tg mouse produced in Example 1, 10 μg/μl 4-OHT was intraperitoneally administered at a dose of 10 μl per day from the fourth day to the sixth day after birth (total dose was 100 μg/day×3 days). On the seventh day after birth, perfusion fixation from the heart was performed using 4% paraformaldehyde (abbreviated as “PFA” hereinafter). Then, a retinal cup was produced from the removed eyeball, and an optical micrograph showing the retina was obtained using MZ16F (Leica). A mouse to which 4-OHT was not administered was used as a control and subjected to the same treatment, and then an image was obtained.
# [2] = system: retina of the constitutively active Akt-Mer Tg mouse; test: Whole-mount immunostaining (anti PECAM-1) of the retina, retinal vascular morphology (Examples 4, 5)
# Protocol: (§1) To the constitutively active Akt-Mer Tg mouse produced in Example 1, 10 μg/μl 4-OHT was intraperitoneally administered at a dose of 10 μl per day from the fourth day to the sixth day after birth (total dose was 100 μg/day×3 days). On the seventh day after birth, perfusion fixation from the heart was performed using 4% PFA, and then a retinal cup was produced from the removed eyeball. Fluorescent immunostaining using an anti PECAM-1 (platelet endothelial cell adhesion molecule-1: CD31) antibody was performed to stain vascular endothelial cells. Subsequently, a flat-mount image of the retina was obtained using AxioObserver (Zeiss). A mouse to which 4-OHT was not administered was used as a control and subjected to the same treatment, and then an image was obtained.
# For the purpose of further investigating the retinal vascular morphology in detail, the vascular lengths and vascular diameters were measured. Specifically, regarding the vascular lengths, a distance from the peripheral edge of the optic papilla to the leading end of the extending blood vessel along a vein was measured using Photoshop CS5 software. The vascular lengths at four positions in one retina were measured and quantified. Regarding the arterial diameters and venous diameters, the thickness of arteries and veins located on the circumference of a circle with a radius of 1500 μm about the optical papilla was measured also using Photoshop CS5 software (**<0.01).
# as §1, with “1, 1” for “1, 10”, “was 10” for “was 100”, “days). This dose was one tenth of the dose in the previous examples.” for “days).”, “was produced.” for “was produced from the removed eyeball.”, “PECAM-1 (CD31)” for “PECAM-1 (platelet endothelial cell adhesion molecule-1: CD31)”, “was performed, and” for “was performed to stain vascular endothelial cells. Subsequently,”
# For the purpose of further investigating the retinal vascular morphology in detail, the number of microaneurysms was measured. Specifically, regarding the measurement of the number of microaneurysms, the number of microaneurysms in one retina was manually measured using the flat-mount image of the retina.
# [3] = system: retina of the constitutively active Akt-Mer Tg mouse; test: Retinal cryosection with Hoechst staining, retinal surface layer (Example 7); settings: 4-OHT i.p. 100 μg/day×3 days; 7th day after birth; vs control
# Protocol: To the constitutively active Akt-Mer Tg mouse produced in Example 1, 10 μg/μl 4-OHT was intraperitoneally administered at a dose of 10 μl per day from the fourth day to the sixth day after birth (total dose was 100 μg/day×3 days). On the seventh day after birth, perfusion fixation from the heart was performed using 4% PFA. The eyeball was removed, and then a retinal cryosection was produced. The nuclei were visualized through Hoechst staining, and an image was obtained using a microscope (Zeiss). A mouse to which 4-OHT was not administered was used as a control and subjected to the same treatment, and then an image was obtained.
# [4] = system: retina of the constitutively active Akt-Mer Tg mouse; test: Retinal vascular permeability, Evans blue leakage (Example 6); settings: 4-OHT i.p. 10 μg/μl, 10 μl per day, 4th to 6th day after birth
# Protocol: To the constitutively active Akt-Mer Tg mouse produced in Example 1, 10 μg/μl 4-OHT was intraperitoneally administered at a dose of 10 μl per day from the fourth day to the sixth day after birth (total dose was […]). On the seventh day after birth, 20 μl of Evans blue was intraperitoneally administered, and 1 hour after this, perfusion fixation from the heart was performed using 4% PFA, and then, the eyeball was removed. An image of the removed eyeball was obtained using an MZ16F stereoscopic microscope (Leica). A mouse to which 4-OHT was not administered was used as a control and subjected to the same treatment, and then an image was obtained.
# Furthermore, for the purpose of evaluating the vascular permeability in a quantitative manner, the fluorescence intensity of Evans blue leaking from the retinal blood vessels was measured using an LSM710 confocal microscope (Zeiss) (***<0.001).
# [5] = 4-OHT i.p. 100 μg/day×3 days, observed 7th day after birth, vs control
substance,measurement,setting,value
4-hydroxytamoxifen [4-OHT],retinal hemorrhage,[1],punctuate retinal hemorrhage was observed
same,number of microaneurysms in one retina (average),"[2]; 4-OHT i.p. 10 μg/day×3 days, 7th day after birth, hardly observed in control",90
same,vascular network formation,"[2]; 4-OHT i.p. 100 μg/day×3 days, 4th to 6th day after birth, observed 7th day, vs control",the formation of a dense vascular network was observed
same,formation of microaneurysms,"[2]; 4-OHT i.p. 100 μg/day×3 days, observed 7th day after birth","the formation of microaneurysms, which have a varicose structure, was induced"
same,extension of blood vessels,[2]; [5],the extension of blood vessels was delayed compared with the control
same,"vascular diameters (arteries, veins, capillaries)",[2]; [5],the overall retinal blood vessels significantly expanded
same,formation of microaneurysms,"[2]; low-concentration 4-OHT i.p. 10 μg/day×3 days, observed 7th day after birth",the formation of microaneurysms was also induced
same,"swelling of overall retina, particularly the surface layer",[3],significantly swollen
same,vascular permeability (leakage of Evans blue from blood vessels),"[4]; Evans blue i.p. on 7th day, 1 hour",the vascular permeability was increased
same,fluorescence intensity of Evans blue leaking from the retinal blood vessels,"[4]; confocal microscope, ***<0.001 vs control",significantly larger than that in the control
